Test results reported in US9079864B2, “Modulators of S1P receptors” (Allergan, Inc., priority 2010, dated 2015).

Target: T1, human S1P1 receptor (Homo sapiens, UniProt P21453)
T1 construct: expressed in transfected cells; membranes used
Test: GTP γ35S binding assay for S1P1 activity
Assay type: biochemical
Design: % stimulation: reference not given here
Settings: for % stimulation: S1P1 receptor, agonist-induced; for EC50: membranes of cells stably expressing S1P1 receptor, agonist mode, 0.08 to 5,000 nM
Description: Novel compounds were synthesized and tested for S1P1 activity using the GTP γ^35S binding assay. These compounds may be assessed for their ability to activate or block activation of the human S1P1 receptor in cells stably expressing the S1P1 receptor. GTP γ^35S binding was measured in the medium containing (mM) HEPES 25, pH 7.4, MgCl2 10, NaCl 100, dithiothreitol 0.5, digitonin 0.003%, 0.2 nM GTP γ^35S, and 5 μg membrane protein in a volume of 150 μl. Test compounds were included in the concentration range from 0.08 to 5,000 nM unless indicated otherwise. Membranes were incubated with 100 μM 5′-adenylylimmidodiphosphate for 30 min, and subsequently with 10 μM GDP for 10 min on ice. Drug solutions and membrane were mixed, and then reactions were initiated by adding GTP γ^35S and continued for 30 min at 25° C. Reaction mixtures were filtered over Whatman GF/B filters under vacuum, and washed three times with 3 mL of ice-cold buffer (HEPES 25, pH 7.4, MgCl2 10 and NaCl 100). Filters were dried and mixed with scintillant, and counted for ^35S activity using a β-counter. Agonist-induced GTP γ^35S binding was obtained by subtracting that in the absence of agonist. In case of antagonist assay, the reaction mixture contained 10 nM S1P in the presence of test antagonist at concentrations ranging from 0.08 to 5000 nM.

T1 sequence (P21453 whole entry): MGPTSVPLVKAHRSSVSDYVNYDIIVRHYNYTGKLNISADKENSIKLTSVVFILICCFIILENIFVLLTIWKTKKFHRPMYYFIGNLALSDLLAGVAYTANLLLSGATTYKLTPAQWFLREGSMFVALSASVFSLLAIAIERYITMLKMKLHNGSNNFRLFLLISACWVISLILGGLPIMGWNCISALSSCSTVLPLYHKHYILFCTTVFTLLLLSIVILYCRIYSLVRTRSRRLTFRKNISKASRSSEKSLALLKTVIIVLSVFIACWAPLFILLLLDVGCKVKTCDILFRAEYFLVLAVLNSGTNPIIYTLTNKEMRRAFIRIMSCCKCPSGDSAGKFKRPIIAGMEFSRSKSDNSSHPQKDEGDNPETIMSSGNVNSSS

| % stimulation | EC50 | SMILES |
| --- | --- | --- |
| 67% | 6.3 nM | CC(C)Oc1ccc(C#Cc2ccc(Cn3ccnc3)cc2)cc1C#N [Compound 1, 5-{[4-(1H-imidazol-1-ylmethyl)phenyl]ethynyl}-2-isopropoxybenzonitrile] |
| 110% | 365 nM | CC(C)Oc1ccc(C#Cc2ccc(CN3CCCC3)cc2)cc1C#N [Compound 2, 2-isopropoxy-5-{[4-(pyrrolidin-1-ylmethyl)phenyl]ethynyl}benzonitrile] |
| 81% | 14.7 nM | CC(C)Oc1ccc(C#Cc2ccc(Cn3ccnc3)cc2)cc1Cl [Compound 3, 1-{4-[(3-chloro-4-isopropoxyphenyl)ethynyl]-benzyl}-1H-imidazole] |
| 70% | 3.1 nM | Cc1cc(Cn2ccnc2)ccc1C#Cc1ccc(OC(C)C)c(C#N)c1 [Compound 4, 5-{[4-(1H-imidazol-1-ylmethyl)-2-methylphenyl]ethynyl}-2-isopropoxybenzonitrile] |
| 108% | 7.52 nM | CC(C)Oc1ccc(C#Cc2ccc(Cn3ccnc3)cc2Cl)cc1C#N [Compound 5, 5-{[2-chloro-4-(1H-imidazol-1-ylmethyl)phenyl]ethynyl}-2-isopropoxybenzonitrile] |
